Measured values taken from patent US12173018B2, “Penicillin-binding protein inhibitors” (priority 2018, dated 2024).
Read-outs that look alike come from different tables or passages of the source.

Legend:
Format in all cases: cell-based
P. aeruginosa ATCC 35151 = assay: microbe, parasite or virus in culture; conditions: Pseudomonas aeruginosa
Summary of the method: (§1)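 Following CLSI guidance, growth inhibition is measured in Mueller-Hinton broth with divalent cations. Inoculum 5×10^5 CFU/mL; incubation 16-20 hours, 37° C; endpoint is visual absence of growth.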

A. baumannii ATCC 19606 = assay: Broth microdilution MIC, A. baumannii ATCC 19606; conditions: Acinetobacter baumannii
Summary of the method: as §1

P. aeruginosa PAO1 = assay: Broth microdilution MIC, P. aeruginosa PAO1; conditions: Pseudomonas aeruginosa; P. aeruginosa PAO1, broth microdilution; read-out: MIC P. aeruginosa PAO1
Summary of the method: as §1

[1] = ATCC35151, hyper-permeable P. aeruginosa ATCC 35151, read-out: MIC P. aeruginosa ATCC 35151
[2] = ATCC19606, A. baumannii ATCC 19606, broth microdilution, read-out: MIC A. baumannii ATCC 19606

| SMILES | MIC (P. aeruginosa ATCC 35151; [1]) [µg/mL] | MIC (A. baumannii ATCC 19606; [2]) [µg/mL] | MIC (P. aeruginosa PAO1) [µg/mL] | MIC (A. baumannii ATCC 19606; ATCC19606, read-out: MIC A. baumannii ATCC 19606) [µg/mL] | MIC (P. aeruginosa ATCC 35151; ATCC35151, read-out: MIC P. aeruginosa ATCC 35151) [µg/mL] |
| --- | --- | --- | --- | --- | --- |
| CCN1CCN(C(=O)NC(C(=O)N[C@H]2Cc3cccc(C(=O)O)c3OB2O)c2ccc(O)c(O)c2F)C(=O)C1=O (some centres unmarked) [Example 70] | < 0.25 | 0.5 to 1 | 8 to 16 | – | – |
| O=C(O)c1cccc2c1OB(O)[C@@H](NC(=O)C(NC(=O)N1CCN(CCF)C(=O)C1=O)c1ccc(O)c(O)c1Cl)C2 (stereo partly drawn) [Example 71, (3R)-3-(2-(2-chloro-3,4-dihydroxyphenyl)-2-(4-(2-fluoroethyl)-2,3-dioxopiperazine-1-carboxamido)acetamido)-2-hydroxy-3,4-dihydro-2H-benzo[e][1,2]oxaborinine-8-carboxylic acid] | 0.5 to 1 | 0.5 to 1 | 32 to 64 | – | – |
| NCCCN1CCN(C(=O)NC(C(=O)N[C@H]2Cc3cccc(C(=O)O)c3OB2O)c2ccc(O)c(O)c2Cl)C(=O)C1=O (stereo partly drawn) [Example 233, (3R)-3-(2-(4-(3-aminopropyl)-2,3-dioxopiperazine-1-carboxamido)-2-(2-chloro-3,4-dihydroxyphenyl)acetamido)-2-hydroxy-3,4-dihydro-2H-benzo[e][1,2]oxaborinine-8-carboxylic acid] | < 0.25 | 2 to 4 | – | – | – |
| CCN1C[C@H](CO)N(C(=O)NC(C(=O)N[C@H]2Cc3cccc(C(=O)O)c3OB2O)c2ncc(O)cc2F)C(=O)C1=O (stereo partly drawn) [Example 234, (3R)-3-(2-((R)-4-ethyl-6-(hydroxymethyl)-2,3-dioxopiperazine-1-carboxamido)-2-(3-fluoro-5-hydroxypyridin-2-yl)acetamido)-2-hydroxy-3,4-dihydro-2H-benzo[e][1,2]oxaborinine-8-carboxylic acid] | 8 to 16 | – | – | > 128 | – |
| CCNC(=O)NCCN1CCN(C(=O)NC(C(=O)N[C@H]2Cc3cccc(C(=O)O)c3OB2O)c2ccc(O)c(O)c2Cl)C(=O)C1=O (stereo partly drawn) [Example 235, (3R)-3-(2-(2-chloro-3,4-dihydroxyphenyl)-2-(4-(2-(3-ethylureido)ethyl)-2,3-dioxopiperazine-1-carboxamido)acetamido)-2-hydroxy-3,4-dihydro-2H-benzo[e][1,2]oxaborinine-8-carboxylic acid] | < 0.25 | 0.5 to 1 | – | – | – |
| NCCCN1CCN(C(=O)N[C@@H](C(=O)N[C@H]2Cc3ccc(F)c(C(=O)O)c3OB2O)c2ccc(O)c(O)c2Cl)C(=O)C1=O [Example 236, (R)-3-((R)-2-(4-(3-aminopropyl)-2,3-dioxopiperazine-1-carboxamido)-2-(2-chloro-3,4-dihydroxyphenyl)acetamido)-7-fluoro-2-hydroxy-3,4-dihydro-2H-benzo[e][1,2]oxaborinine-8-carboxylic acid] | < 0.25 | < 0.25 | – | – | – |
| CCN1C[C@H](CO)N(C(=O)NC(C(=O)N[C@H]2Cc3ccc(F)c(C(=O)O)c3OB2O)c2ccc(O)c(O)c2Cl)C(=O)C1=O (stereo partly drawn) [Example 237, (3R)-3-(2-(2-chloro-3,4-dihydroxyphenyl)-2-((R)-4-ethyl-6-(hydroxymethyl)-2,3-dioxopiperazine-1-carboxamido)acetamido)-7-fluoro-2-hydroxy-3,4-dihydro-2H-benzo[e][1,2]oxaborinine-8-carboxylic acid] | < 0.25 | < 0.25 | – | – | – |
| CCN1C[C@H](CCN)N(C(=O)NC(C(=O)N[C@H]2Cc3ccc(F)c(C(=O)O)c3OB2O)c2ccc(O)c(O)c2Cl)C(=O)C1=O (stereo partly drawn) [Example 238, (3R)-3-(2-((S)-6-(2-aminoethyl)-4-ethyl-2,3-dioxopiperazine-1-carboxamido)-2-(2-chloro-3,4-dihydroxyphenyl)acetamido)-7-fluoro-2-hydroxy-3,4-dihydro-2H-benzo[e][1,2]oxaborinine-8-carboxylic acid] | – | 0.5 to 1 | – | – | < 0.25 |
| CNCCN1CCN(C(=O)NC(C(=O)N[C@H]2Cc3cccc(C(=O)O)c3OB2O)c2ccc(O)c(O)c2Cl)C(=O)C1=O (stereo partly drawn) [Example 239, (3R)-3-(2-(2-chloro-3,4-dihydroxyphenyl)-2-(4-(2-(methylamino)ethyl)-2,3-dioxopiperazine-1-carboxamido)acetamido)-2-hydroxy-3,4-dihydro-2H-benzo[e][1,2]oxaborinine-8-carboxylic acid] | < 0.25 | 0.5 to 1 | – | – | – |
